One data set deals with healthy subjects. Briefly: Adverse event monitoring. The format is in vivo, human. The source says: Blood and urine samples for conventional clinical laboratory safety tests were obtained at the screening visit, in the morning of each main profiling day, and on Day 19. Adverse events (AEs) were monitored throughout the study.
A short description of data set [1]: Steady-state plasma pharmacokinetics (HPLC-MS/MS) in healthy men; oral roflumilast 500 μg once daily, inhaled formoterol 24 μg twice daily. The settings on record: for AUC / Cmax: male, human, plasma, oral; for AUC: AUCτ; for AUC / Cmax / C trough / CL/F: steady state, geometric mean (68% range). The protocol:
For Regimen A, subjects received 500 μg oral roflumilast once daily (daily dose: one tablet of roflumilast 500 μg) from the morning of Day 2 to the morning of Day 18. […] For Regimen B, subjects received 24 μg formoterol for oral inhalation delivered by a DPI device (Foradil® P) twice daily, once in the morning and once in the evening from the morning of Day 2 to the evening of Day 18.
Pre-dose blood samples for determination of trough levels were taken on Days 9 and 10 for Regimen A (morning only), and on Days 6 and 7 (morning and evening) for Regimen B. Blood samples (4.5 mL) were collected in heparinised tubes and plasma was obtained by centrifugation at 1550 g for 15 minutes. Plasma samples were stored at -20°C or below for roflumilast, and at -70°C for formoterol. Plasma concentrations of roflumilast and roflumilast N-oxide were determined using high-performance liquid chromatography coupled with tandem mass spectrometry (HPLC-MS/MS). […] Roflumilast and roflumilast N-oxide standard curves were valid up to 20 ng/mL and 40 ng/mL, respectively. Determination of roflumilast and roflumilast N-oxide was performed at Altana Pharma AG, Konstanz, Germany (Nycomed GmbH). Plasma concentrations of formoterol were determined using HPLC-MS/MS. The LLOQ in plasma was 0.4 pg/mL using a sample volume of 1.0 mL. […] Determination of formoterol was performed at pharm-analyt Labor GmbH, Baden, Austria, under the supervision of Altana Pharma AG(Nycomed GmbH).
For roflumilast, roflumilast N-oxide and formoterol, the maximum plasma concentration (Cmax) was derived directly from the plasma concentrations. The AUC from time zero to the time of the last quantifiable concentration, which corresponded to the dosing interval of each analyte (AUC0-τ), was estimated using the linear trapezoidal method. Apparent clearance at steady state (CL/F; calculated by dose/AUCτ) was reported for roflumilast only. […] The calculation of tPDE4i was based on the equation described in Lahu et al..

[2] abbreviates: 500 μg, Regimen A Day 11 (roflumilast alone).
[3] abbreviates: Regimen A Day 18 (roflumilast plus formoterol).
Where [4] appears, read: Regimen B Day 18 (formoterol plus roflumilast).
Where [5] appears, read: Regimen A Day 11 (roflumilast alone).

Results on one compound are retold here after article PMC3127977, “No relevant cardiac, pharmacokinetic or safety interactions between roflumilast and inhaled formoterol in healthy subjects: an open-label, randomised, actively controlled study” (BMC Clinical Pharmacology, 2011).

One may read the AUC as the area under the concentration-time curve, a measure of exposure. As a reminder, the Cmax is the highest concentration seen after dosing.

Structures are written as SMILES.

With `O=C(Nc1c(Cl)cncc1Cl)c1ccc(OC(F)F)c(OCC2CC2)c1` [Roflumilast, 3-cyclopropylmethoxy-N-(3,5-dichloropyridin-4-yl)-4-(difluoromethoxy)benzamide], the “number of AEs” value in the data set with healthy subjects (Regimen A, Day 2 to Day 11) was 17 AEs. For the same compound, the “subjects who experienced AEs” value with healthy subjects (Regimen A, Day 2 to Day 11, n = 12) is recorded as 7 subjects. For the same compound, in the data set with healthy subjects (Regimen A, roflumilast alone), the dizziness reports entry is on record as “four” and the myalgia reports result is on record as “four”. The tremor entry in the data set on healthy subjects (administered alone (Regimens A and B respectively)) was “not observed”. In addition, the “steady-state AUC and Cmax values lower” value in data set [1] (Regimen B Day 18 (co-administered with formoterol) compared with Regimen A Day 11 or Day 18) is 10-15%. In addition, in data set [1] (concomitant inhaled formoterol compared with roflumilast alone), the “changes in peak concentration and exposure” value was “less than 1%”. The “changes in steady-state pharmacokinetics when the other drug was added” value in data set [1] (formoterol added to roflumilast, or roflumilast added to formoterol) was “no relevant changes”. In data set [1] (setting [2]), the AUC was found to be 35.8 ng·h/mL and the highest level (Cmax) was 6.89 ng/mL. Besides, in data set [1] (setting [3]), the AUC turned out to be 36.9 ng·h/mL, the Cmax was determined as 6.43 ng/mL, the C trough is given as 0.50 (0.29-0.86) μg/L and the CL/F is 13.5 (10.3-17.7) L/h. In data set [1] (setting [4]), the AUC was found to be 31.8 ng·h/mL, the Cmax was 5.92 ng/mL, the C trough is 0.37 (0.18-0.77) μg/L and the CL/F is 15.7 (10.4-23.5) L/h. For the same compound, in data set [1] (setting [5]), the C trough is listed as 0.53 (0.33-0.85) μg/L and the CL/F is recorded as 13.9 (10.8-17.9) L/h.
